Data set [1] concerns RSV A2 strain. The data set can be described thus: Assessment of RSV induced CPE in HEp2 cells (RSV A2 strain). The format is cell-based. The settings on record: human respiratory syncytial virus, HEp2 cells; for IC50: HEp-2, 120 h, 1 MOI, 5 days, read-out: RSV A2 CPE IC50; for inhibition at 0.1 µg/mL / inhibition at 0.01 µg/mL: HEp-2; for inhibition at 0.1 µg/mL: Inhibition (%) at 0.1 μg/mL, read-out: RSV A2 CPE % Inhibition; for inhibition at 0.01 µg/mL: Inhibition (%) at 0.01 μg/mL. An outline of the steps:
(§1)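 HEp2 cells were infected at MOI 1 with RSV A2 or RSV B Washington, with compound added at the same time (0.5% DMSO final). Incubation was 5 days for A2 and 6 days for B, then viability was read by resazurin fluorescence (545/590 nm) after 6 h. IC50, IC75 and IC90 came from concentration-response curves.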

In data set [2] the test system is RSV A2 F-protein expression in BEAS2B bronchial epithelial cells. Description: Assessment of RSV F protein expression in BEAS2B bronchial epithelial cells. It counts as cell-based. The settings on record: human respiratory syncytial virus, BEAS-2B, 72 h, read-out: RSV A2 F-protein IC50 (nM). The method, then:
Assessment of RSV F Protein Expression in BEAS2B Bronchial Epithelial Cells
An early event which follows the infection of epithelial cells by RSV is the expression of RSV F-protein on the cells' surface. BEAS2B cells (SV40-immortalised human bronchial epithelial cell line) were grown in 96 well plates. Once more than 70% confluent, cells were infected with RSV A2 (#0709161v, NCPV, Public Health England, Wiltshire) at an MOI of 0.01 in clear RPMI-1640 medium (Life technologies, Paisley, UK) with 2% FBS (Life technologies, Paisley, UK), and incubated for 3 days (37° C./5% CO2).
Supernatant was aspirated and the cells were fixed with 4% formaldehyde (100 μL in PBS solution) for 20 min, washed 3 times with washing buffer (200 μL; PBS containing 0.05% Tween-20) and incubated with blocking solution (100 μL; 5% Marvel milk in PBS) for 1 hr. Cells were then washed with washing buffer (200 μL) and incubated for 1 hr at 37° C. with anti-RSV (2F7; mouse monoclonal, lot 160290, Cat. No. ab43812, Abcam plc, Cambridge, UK) F-fusion protein antibody (50 μL; prepared at a 1:1000 dilution in 5% milk/PBS-tween). After washing, cells were incubated with an HRP-conjugated anti-mouse IgG antibody (50 μL prepared at a 1:2000 dilution in 5% milk in PBS; lot 00095437, Cat.No. P0447, Dako UK Ltd, Cambridgeshire, UK) for 1 hr. Cells were washed twice with washing buffer and once with PBS. TMB substrate (100 μL; substrate reagent pack lot 320436, Cat. No. DY999, R&D Systems, Inc. Abingdon, UK) was then added and the reaction was stopped by the addition of aq sulfuric acid (50 μL; 2N). The resultant signal was determined colourimetrically (OD: 450 nm with a reference wavelength of 655 nm) in a microplate reader (Multiskan FC®, ThermoFisher Scientific). Cells were then washed and 1% crystal violet solution (50 μL; lot SLB4576, Cat. No. HT90132-1L, Sigma-Aldrich) was applied for 30 min. After washing with PBS (200 μL) 3 times, 1% SDS (100 μL) was added to each well, and plates were shaken lightly for 1 hr prior to reading the absorbance at 595 nm. The measured OD450-655 readings were corrected for cell number by dividing the OD450-655 by the OD595 readings. The percentage inhibition for each well was calculated and the IC50 value derived from the concentration-response curve generated for each test compound.

The test system of data set [3] is RSV B Washington strain. Description: Assessment of RSV induced CPE in HEp2 cells (RSV B Washington strain). The format is cell-based. The settings on record: human respiratory syncytial virus, HEp2 cells; for IC50: HEp-2, 144 h, 1 MOI, 6 days, read-out: RSV B CPE IC50; for inhibition at 1 µg/mL / inhibition at 0.1 µg/mL: HEp-2; for inhibition at 1 µg/mL: Inhibition (%) at 1 μg/mL, read-out: RSV B CPE % Inhibition; for inhibition at 0.1 µg/mL: Inhibition (%) at 0.1 μg/mL. An outline of the steps: as §1

Data set [4] is described as follows: Cell viability: resazurin assay. The format is cell-based, human. Conditions: human, HEp2 cells. An outline of the steps:
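Viability read-out: resazurin fluorescence (ex 545, em 590 nm) after 6 h, following 5-day compound incubation of HEp2 cells (37 °C, 5% CO2, 5% FBS, 0.5% DMSO final). Loss expressed as percentage of vehicle, negative if viability rose; CC50 derived from concentration-response curve where appropriate.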
A general note: The colour change of resazurin is a common sign of viable cells or microbes.

The structures appear in SMILES notation.

As usually defined, the IC50 is the point on the concentration scale where inhibition reaches its midpoint. The term inhibition denotes the share of the control response that was lost under treatment. Broadly, the CC50 is the concentration giving 50% cytotoxicity. Low readings indicate greater toxicity to the cells, high ones lower toxicity to the cells.

In the case of `Cc1cnc(N2CC3(CCOCC3)C2)c(C(=O)Nc2ccc(C(=O)N3CCc4cc(C(=O)Nc5ccccc5F)sc4-c4ccccc43)cc2)c1` [Example 33, N-(2-fluorophenyl)-6-(4-(5-methyl-2-(7-oxa-2-azaspiro [3.5]nonan-2-yl)nicotinamido)benzoyl)-5,6-dihydro-4H-benzo[b]thieno[2,3-d]azepine-2-carboxamide], in data set [1], the IC50 was < 0.014 nM and the inhibition at 0.1 µg/mL was determined as 100%. In addition, the IC50 in data set [2] was determined as 0.19 nM. Also, in data set [3], the 50% inhibitory concentration (IC50) was determined as 9.7 nM and the inhibition at 1 µg/mL was 74%. Also, the CC50 at 5 days in data set [4] is > 14200 nM.
Turning to `O=C(Nc1c(F)cccc1Cl)c1cc2c(s1)-c1ccccc1N(C(=O)c1ccc(NC(=O)c3cc4ccccc4nc3N3CC4(CCOCC4)C3)cc1)CC2` [Example 87, 6-(4-(2-(7-oxa-2-azaspiro[3.5]nonan-2-yl)quinoline-3-carboxamido)benzoyl)-N-(2-chloro-6-fluorophenyl)-5,6-di-hydro-4H-benzo[b]thieno[2,3-d]azepine-2-carboxamide], the IC50 amounted to 0.54 nM in data set [1], 0.49 nM in data set [2] and 15.8 nM in data set [3]. In data set [1], this compound came in with an inhibition at 0.01 µg/mL of 94%. For the same compound, the inhibition at 0.1 µg/mL in data set [3] is 100%. Moreover, the half-maximal cytotoxic concentration (CC50) at 5 days in data set [4] is > 12900 nM.
Regarding `Cc1cccc(F)c1NC(=O)c1cc2c(s1)-c1ccccc1N(C(=O)c1ccc(NC(=O)c3cc4c(nc3N3CC5(CCOCC5)C3)CCCC4)cc1)CC2` [Example 9, 6-(4-(2-(7-Oxa-2-azaspiro[3.5]nonan-2-yl)-5,6,7,8-tetrahydroquinoline-3-carboxamido)benzoyl)-N-(2-fluoro-6-methylphenyl)-5,6-dihydro-4H-benzo[b]thieno[2,3-d]azepine-2-carboxamide], in data set [1], the IC50 came to 0.39 nM and 0.01 µg/mL produced 92% inhibition. In data set [2], the IC50 came to 0.034 nM. In data set [3], the IC50 came to 1.4 nM and testing at 0.1 µg/mL gave an inhibition of 100%. In data set [4], half-maximal cytotoxicity (CC50 at 5 days) was put at 12500 nM.
In the case of `Cc1cccc(F)c1NC(=O)c1cc2c(s1)-c1ccccc1N(C(=O)c1ccc(NC(=O)c3cc4c(nc3N3CC5(CCOCC5)C3)CCC4)cc1)CC2` [Example 8, 6-(4-(2-(7-Oxa-2-azaspiro[3.5]nonan-2-yl)-6,7-dihydro-5H-cyclopenta[b]pyridine-3-carboxamido)benzoyl)-N-(2-fluoro-6-methylphenyl)-5,6-dihydro-4H-benzo[b]thieno[2,3-d]azepine-2-carboxamide], in data set [1], the IC50 stood at 0.27 nM and the inhibition at 0.01 µg/mL turned out to be 88%. The 50% inhibitory concentration (IC50) in data set [2] worked out at 0.13 nM. In addition, in data set [3], the IC50 stood at 1.3 nM and the inhibition at 0.1 µg/mL amounted to 100%. In addition, the CC50 at 5 days in data set [4] was > 13500 nM.
Regarding `O=C(Nc1c(F)cccc1Cl)c1cc2c(s1)-c1ccccc1N(C(=O)c1ccc(NC(=O)c3cc(C4CC4)cnc3N3CC4(CCOCC4)C3)cc1)CC2` [Example 65, N-(2-chloro-6-fluorophenyl)-6-(4-(5-cyclopropyl-2-(7-oxa-2-azaspiro[3.5]nonan-2-yl)nicotinamido)benzoyl)-5,6-dihydro-4H-benzo[b]thieno[2,3-d]azepine-2-carboxamide], the figures for the IC50 in data set [1], in data set [2] and in data set [3] were 0.13 nM, 0.59 nM and 1.6 nM, respectively. This compound also showed an inhibition at 0.01 µg/mL in data set [1] of 100%. For the same compound, the inhibition at 1 µg/mL in data set [3] was determined as 100%. Moreover, the CC50 at 5 days in data set [4] was > 13100 nM.
For `O=C(Nc1ccc(F)cc1Cl)c1cc2c(s1)-c1ccccc1N(C(=O)c1ccc(NC(=O)c3cccnc3N3CC4(CCOCC4)C3)cc1)CC2` [Example 27, 6-(4-(2-(7-oxa-2-azaspiro[3.5]nonan-2-yl)nicotinamido)benzoyl)-N-(2-chloro-4-fluorophenyl)-5,6-dihydro-4H-benzo [b]thieno[2,3-d]azepine-2-carboxamide], the figures for the IC50 in data set [1], in data set [2] and in data set [3] were 0.17 nM, 0.51 nM and 37.4 nM, respectively. Also, the inhibition at 0.1 µg/mL in data set [1] came out at 100%. For the same compound, in data set [3], the inhibition at 1 µg/mL was determined as 100%. For the same compound, the CC50 at 5 days in data set [4] was > 13800 nM.
As for `O=C(Nc1ccccc1F)c1cc2c(s1)-c1ccccc1N(C(=O)c1ccc(NC(=O)c3cccnc3N3CC4(CCOCC4)C3)cc1)CC2` [Example 15, 6-(4-(2-(7-oxa-2-azaspiro[3.5]nonan-2-yl)nicotinamido)benzoyl)-N-(2-fluorophenyl)-5,6-dihydro-4H-benzo[b]thieno [2,3-d]azepine-2-carboxamide], in data set [1], the IC50 is 0.4 nM and the inhibition at 0.1 µg/mL is 100%. Also, the IC50 in data set [2] amounted to 0.36 nM. For the same compound, in data set [3], the IC50 was found to be 20.4 nM and the inhibition at 1 µg/mL was found to be 85%. In data set [4], the CC50 at 5 days was > 14500 nM.
Take `O=C(Nc1ccccc1Cl)c1cc2c(s1)-c1ccccc1N(C(=O)c1ccc(NC(=O)c3cccnc3N3CC4(CCOCC4)C3)cc1)CC2` [Example 16, 6-(4-(2-(7-oxa-2-azaspiro[3.5]nonan-2-yl)nicotinamido)benzoyl)-N-(2-chlorophenyl)-5,6-dihydro-4H-benzo[b]thieno [2,3-d]azepine-2-carboxamide]: in data set [1], the IC50 came to 0.76 nM and the inhibition at 0.1 µg/mL is 100%. The IC50 in data set [2] came out at 0.93 nM. For the same compound, in data set [3], the IC50 is 142 nM and the inhibition at 1 µg/mL was 63%. Besides, the CC50 at 5 days in data set [4] was > 14200 nM.
For the compound `O=C(Nc1c(F)cccc1F)c1cc2c(s1)-c1ccccc1N(C(=O)c1ccc(NC(=O)c3cccnc3N3CC4(CCOCC4)C3)cc1F)CC2` [Example 30, 6-(4-(2-(7-oxa-2-azaspiro[3.5]nonan-2-yl)nicotinamido)-2-fluorobenzoyl)-N-(2,6-difluorophenyl)-5,6-dihydro-4H-benzo[b]thieno[2,3-d]azepine-2-carboxamide], in data set [1], the IC50 worked out at 0.12 nM and the inhibition at 0.1 µg/mL turned out to be 100%. The IC50 in data set [2] turned out to be 0.27 nM. In data set [3], the concentration for half-maximal inhibition (IC50) stood at 27.3 nM and the inhibition at 1 µg/mL worked out at 94%. In data set [4], the CC50 at 5 days is > 13800 nM.
Take `O=C(Nc1c(F)cccc1Cl)c1cc2c(s1)-c1ccccc1N(C(=O)c1ccc(NC(=O)c3cc4c(nc3N3CC5(CCOCC5)C3)CCC4)cc1)CC2` [Example 76, 6-(4-(2-(7-oxa-2-azaspiro[3.5]nonan-2-yl)-6,7-dihydro-5H-cyclopenta[b]pyridine-3-carboxamido)benzoyl)-N-(2-chloro-6-fluorophenyl)-5,6-dihydro-4H-benzo[b]thieno[2,3-d] azepine-2-carboxamide]: in data set [1], the IC50 was found to be 0.15 nM and the inhibition at 0.01 µg/mL was determined as 100%. Also, the IC50 in data set [2] was found to be 0.32 nM. Moreover, in data set [3], the IC50 worked out at 1.4 nM and the inhibition at 1 µg/mL amounted to 100%. Further, in data set [4], the CC50 at 5 days was > 13100 nM.
For `Cc1cnc(N2CC3(CCOCC3)C2)c(C(=O)Nc2ccc(C(=O)N3CCc4cc(C(=O)Nc5c(F)cccc5Cl)sc4-c4ccccc43)cc2)c1` [Example 39, N-(2-chloro-6-fluorophenyl)-6-(4-(5-methyl-2-(7-oxa-2-azaspiro[3.5]nonan-2-yl)nicotinamido)benzoyl)-5,6-dihydro-4H-benzo[b]thieno[2,3-d]azepine-2-carboxamide], in data set [1], the concentration for half-maximal inhibition (IC50) is < 0.014 nM and the inhibition at 0.1 µg/mL came to 100%. In addition, the IC50 in data set [2] amounted to 0.057 nM. Further, in data set [3], the IC50 stood at 17.3 nM and the inhibition at 1 µg/mL came out at 77%. For the same compound, the CC50 at 5 days in data set [4] is > 13600 nM.

The values are drawn from patent US10189863B2, “5,6-dihydro-4H-benzo[b]thieno-[2,3-d]azepine derivatives” (PULMOCIDE LIMITED, priority 2014, dated 2019).
